Measured values reported in US8642592B2, “Oxo-heterocyclically substituted alkyl carboxylic acids and use thereof” (Bayer Intellectual Property GmbH, priority 2009, dated 2014).

Columns and labels:
[1] = target: T1, soluble guanylate cyclase (sGC) (Rattus norvegicus, UniProt P20595); assay: Stimulation of sGC enzyme activity (PPi/luciferase detection); type: biochemical; details: sGC enzyme in vitro; for EC50: read-out: EC50 (concentration at 50% of maximum efficacy), activating action at the sGC enzyme
T1 construct: made in house; host or cells: baculovirus/Sf9 insect cells
T1 sequence (P20595 1-619): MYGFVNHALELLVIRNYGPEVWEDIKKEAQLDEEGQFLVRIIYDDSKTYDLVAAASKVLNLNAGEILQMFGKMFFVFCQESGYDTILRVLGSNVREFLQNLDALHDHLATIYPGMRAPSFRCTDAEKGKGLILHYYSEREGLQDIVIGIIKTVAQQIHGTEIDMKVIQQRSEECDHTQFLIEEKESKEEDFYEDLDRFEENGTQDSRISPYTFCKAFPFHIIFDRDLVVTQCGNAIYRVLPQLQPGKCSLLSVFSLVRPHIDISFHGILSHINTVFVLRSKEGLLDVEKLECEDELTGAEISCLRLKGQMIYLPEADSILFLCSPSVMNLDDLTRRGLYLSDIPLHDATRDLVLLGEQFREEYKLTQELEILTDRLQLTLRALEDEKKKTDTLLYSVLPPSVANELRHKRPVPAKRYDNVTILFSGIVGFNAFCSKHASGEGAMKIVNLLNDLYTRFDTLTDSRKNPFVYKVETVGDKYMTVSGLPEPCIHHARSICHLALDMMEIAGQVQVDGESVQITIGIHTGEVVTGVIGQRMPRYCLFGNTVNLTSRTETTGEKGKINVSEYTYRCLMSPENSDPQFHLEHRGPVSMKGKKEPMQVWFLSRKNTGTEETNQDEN
T1 sequence (P19686 1-690 partner): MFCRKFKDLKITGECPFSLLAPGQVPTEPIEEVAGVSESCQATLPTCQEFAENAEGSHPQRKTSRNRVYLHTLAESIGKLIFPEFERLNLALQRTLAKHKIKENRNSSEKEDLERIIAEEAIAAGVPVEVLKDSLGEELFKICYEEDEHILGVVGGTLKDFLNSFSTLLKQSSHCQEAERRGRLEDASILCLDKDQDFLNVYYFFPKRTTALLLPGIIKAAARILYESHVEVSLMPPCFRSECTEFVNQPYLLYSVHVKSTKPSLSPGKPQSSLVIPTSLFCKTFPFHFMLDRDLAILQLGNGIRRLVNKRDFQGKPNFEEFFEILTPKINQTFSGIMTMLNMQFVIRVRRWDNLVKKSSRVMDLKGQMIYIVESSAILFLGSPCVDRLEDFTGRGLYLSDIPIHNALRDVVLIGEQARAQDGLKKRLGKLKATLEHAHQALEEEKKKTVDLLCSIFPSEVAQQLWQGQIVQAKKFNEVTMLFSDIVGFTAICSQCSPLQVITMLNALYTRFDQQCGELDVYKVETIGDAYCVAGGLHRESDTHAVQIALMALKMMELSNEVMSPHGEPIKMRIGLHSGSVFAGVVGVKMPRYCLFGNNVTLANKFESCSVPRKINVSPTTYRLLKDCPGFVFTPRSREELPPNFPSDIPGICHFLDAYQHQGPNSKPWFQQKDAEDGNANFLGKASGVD
Protocol: Soluble guanylate cyclase (sGC) converts on stimulation GTP into cGMP and pyrophosphate (PPi). PPi is detected with the aid of the assay described below. The signal produced in the assay increases as the reaction progresses and serves as a measure of the sGC enzyme activity under the given stimulation.
To carry out the assay, 29 μl of enzyme solution [0-10 nM soluble guanylate cyclase (prepared according to Honicka et al., J. Mol. Med. 77, 14-23 (1999)) in 50 mM TEA, 2 mM MgCl2, 0.1% BSA (fraction V), 0.005% Brij®, pH 7.5] are initially introduced into a microplate, and 1 μl of the substance to be tested (as a serially diluted solution in DMSO) is added. The mixture is incubated at room temperature for 10 min. Then 20 μl of detection mix [1.2 nM Firefly Luciferase (Photinus pyralis luciferase, Promega), 29 μM dehydroluciferin (prepared according to Bitler & McElroy, Arch. Biochem. Biophys. 72, 358 (1957)), 122 μM luciferin (Promega), 153 μM ATP (Sigma) and 0.4 mM DTT (Sigma) in 50 mM TEA, 2 mM MgCl2, 0.1% BSA (fraction V), 0.005% Brij®, pH 7.5] are added. The enzyme reaction is started by adding 20 μl of substrate solution [1.25 mM guanosine 5′-triphosphate (Sigma) in 50 mM TEA, 2 mM MgCl2, 0.1% BSA (fraction V), 0.005% Brij®, pH 7.5] and measured continuously in a luminometer. The extent of the stimulation by the substance to be tested can be determined relative to the signal of the unstimulated reaction.
The activation of heme-free guanylate cyclase is examined by addition of 25 μM of 1H-1,2,4-oxadiazolo[4,3-a]quinoxalin-1-one (ODQ) to the enzyme solution and subsequent incubation for 30 minutes and compared to the stimulation of the native enzyme.

[2] = test system: saphenous artery; assay: Vasorelaxant effect in vitro (phenylephrine-contracted artery rings); set-up: species or system Rabbits; details: Oryctolagus cuniculus; concentration reducing phenylephrine-induced contraction of rabbit saphenous artery rings by 50%
Protocol: Rabbits are anesthetized and sacrificed by intravenous injection of thiopental sodium (about 50 mg/kg) and exsanguinated. The saphenous artery is removed and divided into rings 3 mm wide. The rings are mounted singly on in each case a pair of triangular hooks open at the end and made of 0.3 mm-thick special wire (Remanium®). Each ring is placed under an initial tension in 5 ml organ baths with Krebs-Henseleit solution which is at 37° C., is gassed with carbogen and has the following composition: NaCl 119 mM; KCl 4.8 mM; CaCl2×2 H2O 1 mM; MgSO4×7 H2O 1.4 mM; KH2PO4 1.2 mM; NaHCO3 25 mM; glucose 10 mM; bovine serum albumin 0.001%. The force of contraction is detected with Statham UC2 cells, amplified and digitized via A/D converters (DAS-1802 HC, Keithley Instruments, Munich) and recorded in parallel on chart recorders. Contractions are induced by addition of phenylephrine.
After several (generally 4) control cycles, the substance to be investigated is added in each further run in increasing dosage, and the level of the contraction achieved under the influence of the test substance is compared with the level of the contraction reached in the last preceding run. The concentration necessary to reduce the contraction reached in the preceding control by 50% is calculated from this (IC50). The standard application volume is 5 μl. The proportion of DMSO in the bath solution corresponds to 0.1%.

[3] = target: T2, sGC (Rattus norvegicus, UniProt P20595); assay: sGC-activating activity in the CHO reporter cell in vitro; type: cell-based
T2 construct: expressed in transfected cells; host or cells: CHO reporter cell line
T2 sequence (P20595 1-619): T1 sequence (P20595 1-619)
T2 sequence (P19686 1-690 partner): T1 sequence (P19686 1-690 partner)
Protocol: The cellular action of the compounds according to the invention is determined at a recombinant guanylate cyclase reporter cell line, as described in F. Wunder et al., Anal. Biochem. 339, 104-112 (2005).

[4] = target: T3, Heme-containing sGC (Rattus norvegicus, UniProt P20595); assay: Stimulation of recombinant soluble guanylate cyclase in vitro, heme-containing enzyme; type: biochemical; details: 0 μM Example 1
T3 construct: made in house; host or cells: baculovirus/Sf9 insect cells
T3 sequence (P20595 1-619): T1 sequence (P20595 1-619)
T3 sequence (P19686 1-690 partner): T1 sequence (P19686 1-690 partner)
Description: Hoenicka, E. M. Becker, H. Apeler, T. Sirichoke, H. Schroeder, R. Gerzer and J.-P. Stasch, “Purified soluble guanylyl cyclase expressed in a baculovirus/Sf9 system: Stimulation by YC-1, nitric oxide, and carbon oxide”, J. Mol. Med. 77 (1999), 14-23. The heme-free guanylate cyclase is obtained by adding Tween 20 to the sample buffer (0.5% in the final concentration).
The activation of sGC by a test substance is reported as n-fold stimulation of the basal activity.

MEC (minimum effective concentration), activating action at the sGC enzyme [1] [nM] | EC50 [1] [nM] | MEC (minimum effective concentration), sGC-activating activity in the CHO reporter cell [3] [nM] | SMILES | also measured
– | – | 100 | CC(CCCCNC(=O)C(c1ccc(CN2N=C(c3ccccc3)OCC2=O)cc1)C1CCCC1)C(=O)O (single isomer, unassigned; (+)) [Example 10, (+)-6-{[2-cyclopentyl-2-{4-[(5-oxo-2-phenyl-5,6-dihydro-4H-1,3,4-oxadiazin-4-yl)methyl]phenyl}-acetyl]amino}-2-methylhexanoic acid] | –
– | – | 20 | O=C(NC/C=C/CC1(C(=O)O)CC1)C(c1ccc(CN2N=C(c3ccccc3)OCC2=O)cc1)C1CCCC1 (single isomer, unassigned; (-)) [Example 15] | –
5.5 | 184 | 1 | CC(C(C(=O)NCCCCC1(C(=O)O)CC1)c1ccc(CN2N=C(c3ccccc3)OCC2=O)cc1)C(F)(F)F (stereo not drawn) [Example 24, 1-{4-[(4,4,4-trifluoro-3-methyl-2-{4-[(5-oxo-2-phenyl-5,6-dihydro-4H-1,3,4-oxadiazin-4-yl)methyl]-phenyl}-butanoyl)amino]butyl}cyclopropanecarboxylic acid] | –

The remaining lines, values behind:

SMILES | MEC (minimum effective concentration), activating action at the sGC enzyme [1] [nM] | EC50 [1] [nM] | MEC (minimum effective concentration), sGC-activating activity in the CHO reporter cell [3] [nM] | also measured
CCC(C)C(C(=O)NCCCCC1(C(=O)O)CC1)c1ccc(CN2N=C(c3ccccc3)OCC2=O)cc1 (single isomer, unassigned; (+)) [Example 5, (+)-1-(4-{[3-methyl-2-{4-[(5-oxo-2-phenyl-5,6-dihydro-4H-1,3,4-oxadiazin-4-yl)methyl]phenyl}-pentanoyl]amino}butyl)cyclopropanecarboxylic acid] | 58 | 1500 | 6.5 | IC50 [2]: 297 nM
CC(CCCCNC(=O)C(c1ccc(CN2N=C(c3ccccc3)OCC2=O)cc1)C1CCCC1)C(=O)O (single isomer, unassigned; (+)) [Example 11, (+)-6-{[2-cyclopentyl-2-{4-[(5-oxo-2-phenyl-5,6-dihydro-4H-1,3,4-oxadiazin-4-yl)methyl]phenyl}-acetyl]amino}-2-methylhexanoic acid] | – | – | 100 | –
CCN(CC)[N+]([O-])=NO [DEA/NO, 2-(N,N-diethylamino)diazenolate 2-oxide, reference compound] | – | – | – | Stimulation (n-fold) of heme-containing sGC by DEA/NO alone ([4]; 0.1 μM DEA/NO): 22.2 n-fold
O=C(O)CC1(CCCNC(=O)C(c2ccc(CN3N=C(c4ccccc4)OCC3=O)cc2)C2CCCC2)CC1 (stereo not drawn) [Example 18, (1-{3-[(Cyclopentyl{4-[(5-oxo-2-phenyl-5,6-dihydro-4H-1,3,4-oxadiazin-4-yl)methyl]phenyl}-acetyl)amino]propyl}cyclopropyl)acetic Acid] | – | – | 30 | –
O=C(O)CCCCCNC(=O)C(c1ccc(CN2N=C(c3ccccc3)OCC2=O)cc1)C1CCCC1 (stereo not drawn) [Example 19, 6-[(Cyclopentyl{4-[(5-oxo-2-phenyl-5,6-dihydro-4H-1,3,4-oxadiazin-4-yl)methyl]phenyl}acetyl)-amino]hexanoic Acid] | – | – | 100 | –
O=C(NCCCCC1(C(=O)O)CC1)C(c1ccc(Cn2nc(-c3ccccc3)ccc2=O)cc1)C1CCCC1 (stereo not drawn) [Example 20] | 13 | 650 | 3 | IC50 [2]: 70 nM
O=c1onc2cnc3ccccc3n12 [ODQ, 1H-1,2,4-oxadiazolo-(4,3a)-quinoxalin-1-one, reference compound] | – | – | – | Stimulation (n-fold) of heme-containing sGC by ODQ alone ([4]; 10 μM ODQ): 3.0 n-fold
